From paper PMC7594047, “Synthesis of a New Class of Spirooxindole–Benzo[b]Thiophene-Based Molecules as Acetylcholinesterase Inhibitors” (Molecules, 2020)
Where two headings read alike, the source gives them in different places.

Experiments:
[1] = target: T1, acetylcholinesterase enzyme from electric eel (Electrophorus electricus, UniProt O42275); assay: Acetylcholinesterase (AChE) inhibitory assay (DTNB/acetylthiocholine iodide, absorbance at 412 nm); format: biochemical; details: for inhibition at 1.56 µg/mL: Conc 1.56 ug/ml; for inhibition at 3.125 µg/mL: Conc 3.125 ug/ml; for inhibition at 6.25 µg/mL: Conc 6.25 ug/ml; for inhibition at 12.5 µg/mL: Conc 12.5 ug/ml; for inhibition at 25 µg/mL: Conc 25 ug/ml; for inhibition at 50 µg/mL: Conc 50 ug/ml
T1 construct: purchased Sigma-Aldrich CAS Number 9000-81-1 (catalogue number not given)
Experimental: The in vitro cholinesterase inhibitory activity of the 14 synthesized spiro-oxindole derivatives (IIa–n) were evaluated. […] Galantamine was used as a positive control for comparison.
Acetylcholinesterase (AChE) inhibitory assay.
140 μL of 0.1 M sodium phosphate buffer of pH 8 was first added to a 96-wells microplate followed by 20 μL of test samples and 20 μL of 0.09 units/mL acetylcholinesterase enzyme from electric eel (Sigma-Aldrich, CAS Number 9000-81-1). After 15 min of incubation at 25 °C, 10 μL of 10 mM 5,5′-dithiobis-2-nitrobenzoic acid (DTNB, Sigma-Aldrich, CAS Number 69-78-3) was added into each well followed by 10 μL of 14 mM acetylthiocholine iodide (Sigma-Aldrich, CAS Number 1866-15-5). Thirty min after the initiation of enzymatic reaction, absorbance of the colored end-product was measured using StatFax-2100 microplate reader (Awareness Technology, Inc., USA) at 412 nm. Each test was conducted in triplicates. Test samples were prepared in DMSO at an initial concentration of 1 mg/mL (1000 ppm).
The concentration of DMSO in final reaction mixture was 1%.
The initial screening was carried out at 50 μg/mL of test samples in 1% DMSO. Absorbance of the test samples was corrected by subtracting the absorbance of their respective blank. Percentage enzyme inhibition is calculated using the following formula Percentage of inhibition = Absorbance of control - […]

AChE = details: cited from earlier work
[2] = read-out: IC50 value against AChE
[3] = supplement, six concentrations 1.56-50 μg/mL, read-out: IC50 (AchE inhibition) (converted)

T1 sequence (O42275 24-633): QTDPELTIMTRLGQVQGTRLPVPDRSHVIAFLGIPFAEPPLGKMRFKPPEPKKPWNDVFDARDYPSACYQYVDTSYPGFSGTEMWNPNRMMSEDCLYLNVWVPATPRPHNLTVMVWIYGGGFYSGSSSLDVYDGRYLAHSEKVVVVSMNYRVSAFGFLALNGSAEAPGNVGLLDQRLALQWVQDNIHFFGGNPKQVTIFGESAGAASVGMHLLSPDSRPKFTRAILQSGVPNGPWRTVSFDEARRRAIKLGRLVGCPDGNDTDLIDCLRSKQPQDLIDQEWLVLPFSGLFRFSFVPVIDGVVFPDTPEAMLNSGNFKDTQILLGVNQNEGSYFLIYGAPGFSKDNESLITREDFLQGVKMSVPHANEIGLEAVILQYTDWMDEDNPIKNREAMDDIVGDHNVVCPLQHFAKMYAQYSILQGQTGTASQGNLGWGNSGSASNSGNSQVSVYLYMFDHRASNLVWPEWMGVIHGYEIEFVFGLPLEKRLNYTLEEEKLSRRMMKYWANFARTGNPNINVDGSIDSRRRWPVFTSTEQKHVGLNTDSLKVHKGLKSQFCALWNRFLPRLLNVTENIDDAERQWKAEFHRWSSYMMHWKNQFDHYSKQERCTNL

| SMILES | inhibition at 1.56 µg/mL [1] [%] | inhibition at 3.125 µg/mL [1] [%] | inhibition at 6.25 µg/mL [1] [%] | inhibition at 12.5 µg/mL [1] [%] | inhibition at 25 µg/mL [1] [%] | inhibition at 50 µg/mL [1] [%] | IC50 [1, 2] [µM] | IC50 [1, 3] [µM] | AChE inhibitory activity IC50 (AChE; compound B, Figure 1) [µg/mL] | IC50 (AChE; positive control (STD), Table 1, read-out: AChE Inhibition IC50) [µM] | IC50 ([1]; Table 1, read-out: AChE Inhibition IC50) [µM] | AChE inhibitory activity IC50 (AChE; compound A) [µg/mL] | IC50 (AChE; compound A, read-out: AChE inhibitory activity IC50) [µM] |
| --- | --- | --- | --- | --- | --- | --- | --- | --- | --- | --- | --- | --- | --- |
| O=C(c1ccc(Br)cc1)C1C(c2cc3ccccc3s2)C2CSCN2[C@@]12C(=O)Nc1ccc(Cl)cc12 (stereo partly drawn) [IIl, (3S)-7′-(Benzo[b]thiophen-2-yl)-6′-(4-bromobenzoyl)-5-chloro-3′,6′,7′,7a’-tetrahydro-1′H-spiro[indoline-3,5′-pyrrolo[1,2-c]thiazol]-2-one] | 11.6 | 25.6 | 34.9 | 44.4 | 56.5 | 64.9 | 29.8 | 29.8 |  |  |  |  |  |
| O=C(c1ccccc1)C1C(c2cc3ccccc3s2)C2C3CCCCC3CN2[C@@]12C(=O)Nc1ccc(Cl)cc12 (stereo partly drawn) [IIc, (3S)-1′-(Benzo[b]thiophen-2-yl)-2′-benzoyl-5-chloro-1′,2′,5′,5a’,6′,7′,8′,9′,9a’,9b’-decahydrospiro[indoline-3,3′-pyrrolo[2,1-a]isoindol]-2-one] | 13.9 | 29.9 | 43.5 | 54.5 | 61.6 | 70.3 |  | 20.8 |  |  |  |  |  |
| O=C1/C(=C/c2ccc(Cl)cc2)CN(C(=O)C2CC3CCCN3C23C(=O)Nc2ccccc23)C/C1=C\c1ccc(Cl)cc1 (stereo not shown) [compound B] |  |  |  |  |  |  |  |  | 2.28 ± 0.07 |  |  |  |  |
| O=C(c1ccc(Cl)cc1)C1C(c2cc3ccccc3s2)C2CSCN2[C@@]12C(=O)Nc1ccccc12 (stereo partly drawn) [IIe, (3S)-7′-(Benzo[b]thiophen-2-yl)-6′-(4-chlorobenzoyl)-3′,6′,7′,7a’-tetrahydro-1′H-spiro[indoline-3,5′-pyrrolo[1,2-c]thiazol]-2-one] | 18.2 | 23.3 | 27.7 | 40.3 | 50.5 | 58.6 | 50.6 | 50.6 |  |  |  |  |  |
| O=C(c1ccc(Br)cc1)C1C(c2cc3ccccc3s2)C2C3CCCCC3CN2[C@@]12C(=O)Nc1ccc(Cl)cc12 (stereo partly drawn) [IIn, (3S)-1′-(Benzo[b]thiophen-2-yl)-2′-(4-bromobenzoyl)-5-chloro-1′,2′,5′,5a’,6′,7′,8′,9′,9a’,9b’-decahydrospiro[indoline-3,3′-pyrrolo[2,1-a]isoindol]-2-one] | 15.6 | 23.4 | 32.5 | 41.8 | 50.1 | 61 | 36.8 | 36.8 |  |  |  |  |  |
| O=C(c1ccc(C(F)(F)F)cc1)C1C(c2cc3ccccc3s2)C2CSCN2[C@@]12C(=O)Nc1ccccc12 (stereo partly drawn) [IIj, (3S)-7′-(Benzo[b]thiophen-2-yl)-6′-(4-(trifluoromethyl)benzoyl)-3′,6′,7′,7a’-tetrahydro-1′H-spiro[indoline-3,5′-pyrrolo[1,2-c]thiazol]-2-one] | 1.68 | 6.43 | 12.2 | 29.4 | 41 | 50.7 |  | 76 |  |  |  |  |  |
| O=C(c1ccc(F)cc1)C1C(c2cc3ccccc3s2)C2CSCN2[C@@]12C(=O)Nc1ccc(Cl)cc12 (stereo partly drawn) [IIg, (3S)-7′-(Benzo[b]thiophen-2-yl)-5-chloro-6′-(4-fluorobenzoyl)-3′,6′,7′,7a’-tetrahydro-1′H-spiro[indoline-3,5′-pyrrolo[1,2-c]thiazol]-2-one] | 23.4 | 30.3 | 41.5 | 51.8 | 59 | 68.3 | 23 | 23 |  |  |  |  |  |
| O=C(c1ccc(C(F)(F)F)cc1)C1C(c2cc3ccccc3s2)C2C3CCCCC3CN2[C@@]12C(=O)Nc1ccc(Cl)cc12 (stereo partly drawn) [IIk, (3S)-1′-(Benzo[b]thiophen-2-yl)-5-chloro-2′-(4-(trifluoromethyl)benzoyl)-1′,2′,5′,5a’,6′,7′,8′,9′,9a’,9b’-decahydrospiro[indoline-3,3′-pyrrolo[2,1-a]isoindol]-2-one] | 9.95 | 24.8 | 32.8 | 41.8 | 49.2 | 57.3 | 41.5 | 41.5 |  |  |  |  |  |
| O=C(c1ccc(C(F)(F)F)cc1)C1C(c2cc3ccccc3s2)C2CSCN2[C@@]12C(=O)Nc1ccc(Cl)cc12 (stereo partly drawn) [IIi, (3S)-7′-(Benzo[b]thiophen-2-yl)-5-chloro-6′-(4-(trifluoromethyl)benzoyl)-3′,6′,7′,7a’-tetrahydro-1′H-spiro[indoline-3,5′-pyrrolo[1,2-c]thiazol]-2-one] | 1.23 | 7.35 | 12.7 | 26.2 | 38.7 | 52.4 |  | 72.4 |  |  |  |  |  |
| O=C(c1ccc(Cl)cc1)C1C(c2cc3ccccc3s2)C2CSCN2[C@@]12C(=O)Nc1ccc(Cl)cc12 (stereo partly drawn) [IId, (3S)-7′-(Benzo[b]thiophen-2-yl)-5-chloro-6′-(4-chlorobenzoyl)-3′,6′,7′,7a’-tetrahydro-1′H-spiro[indoline-3,5′-pyrrolo[1,2-c]thiazol]-2-one] | 19.8 | 24.8 | 29.7 | 41.5 | 53.3 | 64 | 37.7 | 37.7 |  |  |  |  |  |
| O=C(c1ccc(Cl)cc1)C1C(c2cc3ccccc3s2)C2C3CCCCC3CN2[C@@]12C(=O)Nc1ccc(Cl)cc12 (stereo partly drawn) [IIf, (3S)-1′-(Benzo[b]thiophen-2-yl)-5-chloro-2′-(4-chlorobenzoyl)-1′,2′,5′,5a’,6′,7′,8′,9′,9a’,9b’-decahydrospiro[indoline-3,3′-pyrrolo[2,1-a]isoindol]-2-one] | 16.1 | 24.4 | 34.9 | 43 | 53 | 63.1 | 34 | 34 |  |  |  |  |  |
| O=C(c1ccccc1)C1C(c2cc3ccccc3s2)C2CSCN2[C@@]12C(=O)Nc1ccc(Cl)cc12 (stereo partly drawn) [IIa, (3S)-7′-(Benzo[b]thiophen-2-yl)-6′-benzoyl-5-chloro-3′,6′,7′,7a’-tetrahydro-1′H-spiro[indoline-3,5′-pyrrolo[1,2-c]thiazol]-2-one] | 1.68 | 6.58 | 14.4 | 27.7 | 39 | 50.4 | > 70 | 85.6 |  |  |  |  |  |
| O=C(c1ccc(F)cc1)C1C(c2cc3ccccc3s2)C2C3CCCCC3CN2[C@@]12C(=O)Nc1ccc(Cl)cc12 (stereo partly drawn) [IIh, (3S)-1′-(Benzo[b]thiophen-2-yl)-5-chloro-2′-(4-fluorobenzoyl)-1′,2′,5′,5a’,6′,7′,8′,9′,9a’,9b’-decahydrospiro[indoline-3,3′-pyrrolo[2,1-a]isoindol]-2-one] | 0.46 | 6.58 | 10.7 | 23.3 | 27.4 | 43 |  | 122 |  |  | 122 |  |  |
| O=C(c1ccc(Br)cc1)C1C(c2cc3ccccc3s2)C2CSCN2[C@@]12C(=O)Nc1ccccc12 (stereo partly drawn) [IIm, (3S)-7′-(Benzo[b]thiophen-2-yl)-6′-(4-bromobenzoyl)-3′,6′,7′,7a’-tetrahydro-1′H-spiro[indoline-3,5′-pyrrolo[1,2-c]thiazol]-2-one] |  |  |  |  |  |  | 41.4 |  |  |  |  |  |  |
| O=C(c1ccccc1)C1C(c2cc3ccccc3s2)C2CSCN2[C@@]12C(=O)Nc1ccccc12 (stereo partly drawn) [IIb, (3S)-7′-(Benzo[b]thiophen-2-yl)-6′-benzoyl-3′,6′,7′,7a’-tetrahydro-1′H-spiro[indoline-3,5′-pyrrolo[1,2-c]thiazol]-2-one] | 2.76 | 8.12 | 16.2 | 25.6 | 40.9 | 51.5 | > 70 | 88.4 |  |  |  |  |  |
| O=C1/C(=C/c2ccc(Cl)cc2Cl)CN(C(=O)C2CC3CCCN3C23C(=O)Nc2cc(Cl)ccc23)C/C1=C\c1ccc(Cl)cc1Cl (stereo not shown) [compound A] |  |  |  |  |  |  |  |  |  |  |  | 2.37 ± 0.11 | 3.33 |
